Test results from PMC3884022 (Journal of Hematology & Oncology, 2014).
Like-named read-outs stand apart in the source and are kept apart here.

Columns and labels:
[1] = tested on: advanced solid tumors; test: Phase 1 combination study: tumor response (RECIST); format: in vivo, human
Description: Circulating nucleic acids were analyzed for PIK3CA (exons 9 and 20), KRAS (exons 2 and 3), and BRAF (exons 11 and 15) mutations. DNA extracted from whole blood samples was subjected to real-time quantitative polymerase chain reaction and spectrophotometric analysis as part of the quality control process, as previously described. Mutation screening was performed using Surveyor Nuclease (Transgenomic, Inc., Nebraska, USA). Radiologic assessment (computed tomography [CT] and/or magnetic resonance imaging [MRI] scans) of disease status was performed at baseline and every 6 weeks according to Response Evaluation Criteria in Solid Tumors (v1.0).

[2] = molecular target: 2D6 (Homo sapiens, UniProt P10635); test: CYP2D6 inhibition; format: in vitro ADME
[3] = tested on: non-small cell lung (NSCLC) cell lines and breast cancer cell lines; settings: with erlotinib and lapatinib; including RAS mutant lines; cited from earlier work
[4] = tested on: CYP3A; test: CYP3A induction (mRNA and activity); format: in vitro ADME; settings: at 0.1 to 10 μM
[5] = tested on: patients with advanced solid tumors; settings: cited from earlier work
[6] = tested on: CYP3A; test: Metabolism in human microsomes; format: in vitro ADME
[7] = tested on: PC-3 prostate and NCI-H462 tumor xenografts; settings: with docetaxel, carboplatin, and gemcitabine; cited from earlier work
[8] = molecular target: 2C9 (Homo sapiens, UniProt P11712); test: CYP2C9 inhibition; format: in vitro ADME
[9] = tested on: patients with advanced solid tumors
Description: The dose-escalation phase in all schedules followed a toxicity probability interval approach, where the aim was to target a dose with a DLT rate of 30% [20].
For all treatment schedules, safety assessments were conducted at baseline and on days 1, 2, 3, 7, 15, and 21 of cycle 1, and weekly in cycles 2 to 6. From cycle 7 onwards, safety assessments were performed on day 1 of each cycle. […] In addition to glucose monitoring, serum c-peptide and whole blood HbA1c were measured at baseline and monthly. Adverse events (AEs) and laboratory variables were assessed using the National Cancer Institute Common Terminology Criteria for Adverse Events (NCI-CTCAE) version 3.0 ^1.

[10] = Phase 1 combination study: MK-2206 pharmacokinetics; format: in vivo, human; settings: for Tmax / half-life: first dose; for Tmax: read-out: T max, median (range); for half-life: read-out: t 1/2, harmonic mean ± pseudo SD (converted)
Description: For the Q3W schedule, samples were taken in cycle 1 on days 1 to 3 as per the QOD schedule, then on days 5, 7, 15, and in cycle 2 on day 1. Blood samples were collected predose and just before the end of the infusion for carboplatin, paclitaxel, and docetaxel for archival and possible PK analysis. Another sample was taken 30 minutes into the infusion of paclitaxel. These samples were archived for possible future analysis to investigate if any unexpected toxicities may have been as a result of a PK interaction. Docetaxel PK samples were analyzed in view of the DLT of febrile neutropenia observed in arm 2; however, PK parameters, such as half-life (t1/2) or systemic exposure of paclitaxel, docetaxel, carboplatin, and erlotinib, could not be evaluated due to the sparse blood sampling design used in this study.
For QW dosing, samples were taken in cycle 1 on day 1 (predose, 2, 4, 6, 10, and 24 hours postdose), day 3 (48 hours postdose), and day 5 (96 hours postdose), then on days 8 and 15 (predose). This sampling schedule was repeated in cycle 2, except for the day 15 predose sample, which was omitted. For the QOD schedule, PK sampling for erlotinib was performed in cycle 1 on day 1 (predose, 2 and 4 hours postdose) and day 21 (2 and 4 hours postdose); for the QW schedule, sampling was performed in cycle 1 on day 1 (predose, 2 and 4 hours postdose) and in cycle 2 on day 1 (2 and 4 hours postdose). […] Blood samples were not analyzed for erlotinib concentrations as the potential for a marked drug-drug interaction with erlotinib as a victim was considered to be low as erlotinib is metabolized by both CYP3A and CYP1A.

[11] = human, plasma, oral, arm 1 carboplatin AUC 6 + paclitaxel 200 mg/m^2, MK-2206 90 mg Q3W, 5 patients
[12] = human, plasma, oral, arm 1 carboplatin AUC 6 + paclitaxel 200 mg/m^2, MK-2206 200 mg Q3W, 5 patients
[13] = human, plasma, oral, arm 2 docetaxel 60 mg/m^2, MK-2206 90 mg Q3W, 3 patients
[14] = human, plasma, oral, arm 2 docetaxel 60 mg/m^2, MK-2206 200 mg Q3W, 4 patients
[15] = human, plasma, oral, arm 3 erlotinib 100 mg, MK-2206 135 mg QW, 6 patients
[16] = human, plasma, oral, arm 3 erlotinib 150 mg QD, MK-2206 135 mg QW, 6 patients

Chain of 2C9 (P11712 whole entry): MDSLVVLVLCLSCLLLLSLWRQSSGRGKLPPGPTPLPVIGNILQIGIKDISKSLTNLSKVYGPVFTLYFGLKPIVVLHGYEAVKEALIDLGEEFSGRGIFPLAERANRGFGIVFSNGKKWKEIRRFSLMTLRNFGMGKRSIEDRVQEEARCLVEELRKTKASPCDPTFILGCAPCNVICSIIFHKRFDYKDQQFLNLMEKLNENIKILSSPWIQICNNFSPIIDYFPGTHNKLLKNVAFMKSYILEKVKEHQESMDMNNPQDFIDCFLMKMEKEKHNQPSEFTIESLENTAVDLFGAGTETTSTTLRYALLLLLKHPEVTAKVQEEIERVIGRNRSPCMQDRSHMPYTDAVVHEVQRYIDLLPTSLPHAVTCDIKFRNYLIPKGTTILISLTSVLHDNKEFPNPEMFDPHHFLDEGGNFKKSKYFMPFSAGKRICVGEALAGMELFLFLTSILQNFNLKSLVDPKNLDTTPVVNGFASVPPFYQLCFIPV
Chain of 2D6 (P10635 whole entry): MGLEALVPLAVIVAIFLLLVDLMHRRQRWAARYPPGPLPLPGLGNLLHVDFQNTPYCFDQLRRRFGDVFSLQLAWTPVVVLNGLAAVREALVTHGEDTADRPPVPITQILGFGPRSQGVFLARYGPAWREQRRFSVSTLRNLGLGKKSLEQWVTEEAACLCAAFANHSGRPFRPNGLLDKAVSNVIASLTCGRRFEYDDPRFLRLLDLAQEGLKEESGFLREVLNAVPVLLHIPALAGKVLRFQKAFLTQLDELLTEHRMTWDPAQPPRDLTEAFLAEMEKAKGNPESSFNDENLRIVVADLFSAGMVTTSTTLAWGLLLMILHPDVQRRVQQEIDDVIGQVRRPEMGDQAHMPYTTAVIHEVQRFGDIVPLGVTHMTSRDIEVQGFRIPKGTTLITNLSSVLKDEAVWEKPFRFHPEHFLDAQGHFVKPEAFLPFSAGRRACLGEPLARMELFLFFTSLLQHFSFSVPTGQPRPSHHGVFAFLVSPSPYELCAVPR

NC1(c2ccc(-c3nc4ccn5c(=O)[nH]nc5c4cc3-c3ccccc3)cc2)CCC1 [MK-2206]
duration of SD ([1]; 1 metastatic breast cancer patient harboring a PIK3CA mutation (exon 20)): 4 months
duration of PR, range ([1]; arm 1): 2–21 months
median duration of PR ([1]; arm 1): 11 months
confirmed partial responses, patients ([1]; arm 1, QOD and Q3W schedules, melanoma, neuroendocrine prostate, endometrial, cervical): 4
duration of unconfirmed PR ([1]; arm 1, SCC of the head and neck (n = 1)): 2 month
unconfirmed PRs, patients ([1]; arm 1, SCC of the head and neck, and gastric): 2 patients
duration of confirmed PR ([1]; arm 1, cervical (n = 1)): 6 month
duration of confirmed PR ([1]; arm 1, endometrial (n = 1)): 4 month
duration of unconfirmed PR ([1]; arm 1, gastric (n = 1)): 2 month
duration of confirmed PR ([1]; arm 1, melanoma (n = 1)): 21 month
duration of confirmed PR ([1]; arm 1, neuroendocrine prostate (n = 1)): 6 month
complete response, patients ([1]; arm 1 carboplatin and paclitaxel, squamous cell carcinoma (SCC) of the orbit, 24 evaluable): 1 patient
duration of PR ([1]; arm 2, MK-2206 200 mg with docetaxel, NSCLC patient): 6 months
confirmed PR, patients ([1]; arm 2, Q3W MK-2206 and docetaxel, NSCLC): One
objective responses ([1]; arm 3 erlotinib): No objective responses
best response SD, duration ([1]; arm 3 erlotinib, QW schedule, patient with NSCLC): 7 months
best response SD, duration ([1]; arm 3 erlotinib, patient with cervical cancer): 6 months
duration of SD, range ([1]; in vivo): 1–13 months
median duration of SD ([1]; in vivo): 7 months
patients with SD lasting at least 6 months ([1]; in vivo): Six
duration of SD ([1]; patients harboring PIK3CA mutations): 1.7 to 5.8 months
duration of SD ([1]; patients with KRAS mutations): 1.4 to 3.0 months
IC50 [2]: > 35 µM
inhibition of proliferation and induction of apoptosis in combination [3]: synergy
effect on CYP3A mRNA and activity [4]: insignificant effect
MTD of single-agent MK-2206 ([5]; QOD): 60 mg
MTD of MK-2206 monotherapy ([5]; QW, monotherapy phase 1 study): 200 mg
half-life (t1/2) ([5]; single agent, QOD schedule): 60 to 80 h
dose-limiting toxicities (DLT) ([5]; single agent): rash and stomatitis
plasma concentration corresponding to 70% AKT inhibition ([5]; single-agent phase 1 study): 56.8 nM
metabolism to oxidative metabolites [6]: mediated primarily by CYP3A
inhibition of xenograft growth in combination [7]: synergised
IC50 [8]: > 35 µM
vomiting, frequency of AE ([9]; all arms and schedules (N = 72)): 36%
rash, frequency ([9]; arm 1, Q3W schedule): 25%
MTD of MK-2206 ([9]; arm 1, Q3W, with carboplatin AUC 6 and paclitaxel 200 mg/m^2): 135 mg
MTD of MK-2206 ([9]; arm 1, QOD days 1, 3, 5, 7, PO, with carboplatin AUC 6 and paclitaxel 200 mg/m^2): 45 mg
MTD of MK-2206 ([9]; arm 2, Q3W, with docetaxel): not reached
MAD of MK-2206 ([9]; arm 2, Q3W, with docetaxel 60 mg/m^2): 200 mg
DLT rate ([9]; arm 3, MK-2206 135 mg QW with erlotinib): 17%
MTD of MK-2206 ([9]; arm 3, QW, with erlotinib): not reached
Alopecia Grade 4 ([9]; human, in vivo): 0 n (%)
Decreased appetite Grade 4 ([9]; human, in vivo): 0 n (%)
Diarrhea Grade 4 ([9]; human, in vivo): 0 n (%)
Fatigue Grade 4 ([9]; human, in vivo): 0 n (%)
Nausea Grade 4 ([9]; human, in vivo): 0 n (%)
Pruritus Grade 4 ([9]; human, in vivo): 0 n (%)
Rash Grade 4 ([9]; human, in vivo): 0 n (%)
Stomatitis Grade 4 ([9]; human, in vivo): 0 n (%)
Vomiting Grade 4 ([9]; human, in vivo): 0 n (%)
alopecia, frequency of AE ([9]; human, in vivo): 40%
anorexia, frequency of AE ([9]; human, in vivo): 44%
diarrhea, frequency of AE ([9]; human, in vivo): 44%
fatigue, frequency of AE ([9]; human, in vivo): 68%
hyperglycemia, frequency of AE ([9]; human, in vivo): 25%
nausea, frequency of AE ([9]; human, in vivo): 49%
rash, frequency ([9]; human, in vivo): 40%
rash, frequency of AE ([9]; human, in vivo): 47%
rate of febrile neutropenia ([9]; human, in vivo): 60%
stomatitis, frequency of AE ([9]; human, in vivo): 32%
time to full reversal of rash after dose interruption and appropriate treatment ([9]; human, in vivo): 7 to 14 days
Dose-limiting toxicities ([9]; human, in vivo, 21 days): 0
mean Ctrough ([10]; 45-mg dose level in all schedules): > 56.8 nM
mean 48-hr plasma concentration ([10]; 60-mg QOD (arm 1), last PK sampling time): above 56.8 nM
AUC, Cmax and Tmax following the first MK-2206 dose ([10]; all treatment arms, compared with single-agent phase 1 study (ref 18)): within ranges observed at the corresponding dose levels in the single-agent phase 1 study
apparent t1/2 in combination with carboplatin and erlotinib ([10]; compared with monotherapy): consistent with that observed with monotherapy
Tmax ([10]; human, plasma, oral, arm 1 carboplatin AUC 6 + paclitaxel 200 mg/m^2, MK-2206 45 mg QOD, 6 patients): 4 h
Tmax ([10]; human, plasma, oral, arm 1 carboplatin AUC 6 + paclitaxel 200 mg/m^2, MK-2206 60 mg QOD, 8 patients): 8 h
Tmax [10, 11]: 6 h
half-life [10, 11]: 79.5 ± 17.3 h
half-life ([10]; human, plasma, oral, arm 1 carboplatin AUC 6 + paclitaxel 200 mg/m^2, MK-2206 135 mg Q3W, 6 patients): 73 ± 20 h
Tmax [10, 12]: 4 h
half-life [10, 12]: 74.7 ± 13.4 h
Tmax [10, 13]: 4 h
half-life [10, 13]: 105 ± 15 h
half-life ([10]; human, plasma, oral, arm 2 docetaxel 60 mg/m^2, MK-2206 135 mg Q3W, 3 patients): 106 ± 32.7 h
Tmax [10, 14]: 6 h
half-life [10, 14]: 86.9 ± 11.5 h
Tmax ([10]; human, plasma, oral, arm 2 docetaxel 75 mg/m^2, MK-2206 45 mg QOD, 5 patients): 6 h
Tmax ([10]; human, plasma, oral, arm 3 erlotinib 100 mg, MK-2206 45 mg QOD, 9 patients): 6 h
Tmax [10, 15]: 6 h
half-life [10, 15]: 60.6 ± 6.6 h
Tmax ([10]; human, plasma, oral, arm 3 erlotinib 150 mg QD, MK-2206 45 mg QOD, 4 patients): 7 h
Tmax [10, 16]: 4 h
half-life [10, 16]: 50.2 ± 10.3 h
concentration at 48 h ([10]; human, plasma, oral, 45-mg QOD (arm 3), last PK sampling time): > 56.8 nM
